Tested on: SYO-1 tumor spheroids, viability % test/control
Test: Anticancer human tumor SYO-1 cell line growth inhibition;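 further: spheroids exposed to agents for 7 days before viability read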;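 on viability, T/C: 100% = DMSO vehicle control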
Details: spheroids with HUVEC and MSC; for IC50: curve of first compound; for viability, T/C: stronger effect = lower value
How it was run: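 Complex spheroids of malignant cells with endothelial cells and mesenchymal stem cells; agents alone or combined, from near clinical Cmax (or 10 microM if unknown) down in half-log steps, 0.25% DMSO final.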

[1] = second compound 1 µM, first compound 0.0316 µM
[2] = second compound 1 µM, first compound 0.1 µM
[3] = second compound 1 µM, first compound 0.316 µM
[4] = second compound 1 µM, first compound 1 µM
[5] = second compound 1 µM, first compound 3.16 µM
[6] = second compound 1 µM, first compound 10 µM
[7] = second compound 3.16 µM, first compound 0.0316 µM
[8] = second compound 3.16 µM, first compound 0.1 µM
[9] = second compound 3.16 µM, first compound 0.316 µM
[10] = second compound 3.16 µM, first compound 1 µM
[11] = second compound 3.16 µM, first compound 3.16 µM
[12] = second compound 3.16 µM, first compound 10 µM
[13] = second compound 10 µM, first compound 0.0316 µM
[14] = second compound 10 µM, first compound 0.1 µM
[15] = second compound 10 µM, first compound 0.316 µM
[16] = second compound 10 µM, first compound 1 µM
[17] = second compound 10 µM, first compound 3.16 µM
[18] = second compound 10 µM, first compound 10 µM
[19] = second compound 31.6 µM, first compound 0.0316 µM
[20] = second compound 31.6 µM, first compound 0.1 µM
[21] = second compound 31.6 µM, first compound 0.316 µM
[22] = second compound 31.6 µM, first compound 1 µM
[23] = second compound 31.6 µM, first compound 3.16 µM
[24] = second compound 31.6 µM, first compound 10 µM
[25] = second compound 100 µM, first compound 0.0316 µM
[26] = second compound 100 µM, first compound 0.1 µM
[27] = second compound 100 µM, first compound 0.316 µM
[28] = second compound 100 µM, first compound 1 µM
[29] = second compound 100 µM, first compound 3.16 µM
[30] = second compound 100 µM, first compound 10 µM

Row | Structure (SMILES) | IC50 (second compound 1 µM) | IC50 (second compound 3.16 µM) | IC50 (second compound 10 µM) | IC50 (second compound 31.6 µM) | IC50 (second compound 100 µM) | viability, T/C [1] | viability, T/C [2] | viability, T/C [3] | viability, T/C [4] | viability, T/C [5] | viability, T/C [6] | viability, T/C [7] | viability, T/C [8] | viability, T/C [9] | viability, T/C [10] | viability, T/C [11] | viability, T/C [12] | viability, T/C [13] | viability, T/C [14] | viability, T/C [15] | other results
1 | CC(C)n1c(=O)n(C)c2cnc3cc(F)c(-c4ccc(OCCCN5CCCCC5)nc4)cc3c21 + Cn1nnc2c(C(N)=O)ncn2c1=O | > 10 µM | > 10 µM | 9.26 µM | 7.88 µM | > 10 µM | 100% | 101% | 103% | 103% | 101% | 59.1% | 105% | 104% | 106% | 104% | 103% | 52% | 105% | 100% | 103% | viability, T/C [16]: 108%; viability, T/C [17]: 102%; viability, T/C [18]: 46.3%; viability, T/C [19]: 106%; viability, T/C [20]: 113%; viability, T/C [21]: 106%; viability, T/C [22]: 115%; viability, T/C [23]: 104%; viability, T/C [24]: 35.8%; viability, T/C [25]: 108%; viability, T/C [26]: 112%; viability, T/C [27]: 106%; viability, T/C [28]: 96.2%; viability, T/C [29]: 103%; viability, T/C [30]: 73%
2 | CC1COCCN1c1cc(-c2ccnn2C)c2ccnc(-c3ccn[nH]3)c2n1 (stereo not given) + Cn1nnc2c(C(N)=O)ncn2c1=O | < 0.0316 µM | < 0.0316 µM | < 0.0316 µM | < 0.0316 µM | < 0.0316 µM | 41.1% | 5.35% | 2.75% | 1.62% | 0.73% | 0.7% | 38.4% | 4.75% | 3.22% | 1.73% | 7.91% | 20% | 20.3% | 3.73% | 2.69% | viability, T/C [16]: 1.48%; viability, T/C [17]: 5.25%; viability, T/C [18]: 21.1%; viability, T/C [19]: 11.1%; viability, T/C [20]: 10.2%; viability, T/C [21]: 2.45%; viability, T/C [22]: 1.18%; viability, T/C [23]: 7.18%; viability, T/C [24]: 6.71%; viability, T/C [25]: 2.97%; viability, T/C [26]: 2.88%; viability, T/C [27]: 1.91%; viability, T/C [28]: 1.24%; viability, T/C [29]: 0.77%; viability, T/C [30]: 0.75%
3 | COc1cc(C)[nH]c(=O)c1CN1CCc2c(Cl)cc(C(OC)C3COC3)c(Cl)c2C1=O (stereo not given) + Cn1nnc2c(C(N)=O)ncn2c1=O | > 10 µM | > 10 µM | > 10 µM | > 10 µM | 0.697 µM | 110% | 108% | 97.7% | 86.7% | 81.1% | 73.8% | 110% | 107% | 99.5% | 89.1% | 77% | 67.8% | 108% | 107% | 97.6% | viability, T/C [16]: 89.7%; viability, T/C [17]: 76.2%; viability, T/C [18]: 71.6%; viability, T/C [19]: 119%; viability, T/C [20]: 111%; viability, T/C [21]: 95.1%; viability, T/C [22]: 80.8%; viability, T/C [23]: 69.6%; viability, T/C [24]: 62.4%; viability, T/C [25]: 106%; viability, T/C [26]: 102%; viability, T/C [27]: 69.7%; viability, T/C [28]: 40.5%; viability, T/C [29]: 41.7%; viability, T/C [30]: 35.6%
4 | COc1ccc([C@@H](O)c2cc(-c3ncnc4cc(N5CCOCC5)ccc34)c(F)cc2Cl)nn1 + Cn1nnc2c(C(N)=O)ncn2c1=O | 4.95 µM | 4.59 µM | 4.93 µM | 4.12 µM | 1.97 µM | 107% | 112% | 112% | 107% | 77.3% | 7.18% | 101% | 106% | 108% | 105% | 68.3% | 11.9% | 108% | 108% | 110% | viability, T/C [16]: 107%; viability, T/C [17]: 74.6%; viability, T/C [18]: 10.7%; viability, T/C [19]: 116%; viability, T/C [20]: 110%; viability, T/C [21]: 111%; viability, T/C [22]: 109%; viability, T/C [23]: 59.4%; viability, T/C [24]: 18.4%; viability, T/C [25]: 113%; viability, T/C [26]: 116%; viability, T/C [27]: 107%; viability, T/C [28]: 80.2%; viability, T/C [29]: 29%; viability, T/C [30]: 2.71%
5 | Cc1cc(C)c(CNC(=O)c2cc(-c3ccc(CN4CCOCC4)cc3)cc3c2cnn3C2CCCC2)c(=O)[nH]1 + Cn1nnc2c(C(N)=O)ncn2c1=O | > 10 µM | > 10 µM | > 10 µM | > 10 µM | 7.99 µM | 106% | 105% | 110% | 104% | 106% | 97% | 103% | 106% | 103% | 104% | 105% | 89.6% | 103% | 106% | 106% | viability, T/C [16]: 108%; viability, T/C [17]: 101%; viability, T/C [18]: 71.2%; viability, T/C [19]: 106%; viability, T/C [20]: 108%; viability, T/C [21]: 107%; viability, T/C [22]: 111%; viability, T/C [23]: 105%; viability, T/C [24]: 74.6%; viability, T/C [25]: 107%; viability, T/C [26]: 111%; viability, T/C [27]: 107%; viability, T/C [28]: 101%; viability, T/C [29]: 76.1%; viability, T/C [30]: 43.7%
6 | [2H]c1nc(C)nc([2H])c1-c1cc(NC[C@@H](C)c2cccc3c(C(=O)NC)ccnc23)ncn1 + Cn1nnc2c(C(N)=O)ncn2c1=O | > 10 µM | > 10 µM | > 10 µM | > 10 µM | > 10 µM | 105% | 105% | 102% | 98.9% | 93.3% | 83% | 110% | 113% | 105% | 96.5% | 90% | 84.8% | 109% | 106% | 106% | viability, T/C [16]: 96.1%; viability, T/C [17]: 90.2%; viability, T/C [18]: 88.4%; viability, T/C [19]: 115%; viability, T/C [20]: 109%; viability, T/C [21]: 110%; viability, T/C [22]: 102%; viability, T/C [23]: 96.4%; viability, T/C [24]: 94%; viability, T/C [25]: 113%; viability, T/C [26]: 115%; viability, T/C [27]: 111%; viability, T/C [28]: 110%; viability, T/C [29]: 93.7%; viability, T/C [30]: 94.3%

From PubChem BioAssay AID1845219 (Molecular Pharmacology Branch, DTP, NCI, 2023)
